According to patent publication US4185096A, “Novel derivatives of pepstatin, their preparation and compositions containing them” (Agence Nationale de Valorisation de la Recherche (ANVAR), priority 1977, dated 1980):
Non-standard residues stand in square brackets, D forms with d. Residues, ends and D or L forms follow the SMILES beside them. *: point of attachment. Sta = CC(C)C[C@H](N)[C@@H](O)CC(=O)O; Isovaleryl = CC(C)CC(=O)*

Experiments:
[1] = system: hypertensive rats; assay: blood pressure in rats with renal hypertension (aortic ligature between the renal arteries); format: in vivo, rat; settings: for decrease of blood pressure: intravenous 350 nmoles, thirteen Saralasin-responder rats, pooled value (2 rats methyl ester, 11 rats arginine salt)
Description: The experimental model of renal hypertension developped in rats by ROJO-ORTEGA and GENEST [Can. J.Phys. Pharm. 46 883-885 (1968)] was used.
A complete ligature of the aorta between the renal arteries was performed in twenty male Sprague-Dawley rats, weighing 300 g. They were investigated between 5 and 10 days after surgery. The blood pressure was measured in the conscious unrestrained rats, through a carotid cannula inserted 24 hours before measurements were made.
The maximal decrease in blood pressure induced by an injection of "Saralasin" was compared [Sar 1, Ala-8 Angiotensin II] in the same animals, to the maximum fall in blood pressure induced by the soluble derivatives of pepstatin according to the invention.
In these thirteen rats, the average blood pressure decrease was 44.5±8.5 mmHg. The intravenous injection of 350 nmoles of pepstatinyl-Arginine-O-Methyl Ester (2 rats), or the Arginine salt of Pepstatinyl (11 rats) decreased blood pressure by 48.3±8.2 mmHg. The maximal fall in blood pressure was obtained 5 minutes after Saralasin, and 6 minutes after soluble pepstatin. Blood pressure returned to the control level 10 minutes after the injection of both inhibitors.

[2] = target: hog renin; assay: in vitro inhibition of hog renin on synthetic N-acetylated tetradecapeptide substrate, fluorimetry, Dixon plot; format: biochemical; settings: 10 milli-Goldblatt units hog renin, pH 6, one hour, 37° C., Dixon representation; read-out: inhibition constant
Description: 10 milli-Goldblatt units of hog renin, from the same source as above, were incubated at pH 6 for one hour at 37° C. in the presence of a synthetic substrate constituted by a N-acetylated renin tetradecapeptide [GALEN et al. Biochem. Biophys. Acta, 523, 485-493 (1978)]. The tetrapeptide quantity produced per hour of incubation was measured by fluorimetry. Three different concentrations of N-acetylated tetradecapeptide were used, that is to say 2.3, 4.6 and 9.3 nmoles with increasing amounts of pepstatin or methyl ester of pepstatin-[…].25, 0.50 and 0.75 10^-6 mole/l).

| SMILES | decrease of blood pressure [1] | Ki [2] | rats with a blood pressure fall of 10 mmHg and more ([1]; among 20 hypertensive rats, intravenous 140 nmoles) | time of maximal fall in blood pressure after injection ([1]; intravenous 140 nmoles) | time of return of blood pressure to the control level after injection ([1]; intravenous 140 nmoles) | average blood pressure decrease ([1]; intravenous 140 nmoles, thirteen responder rats) |
| --- | --- | --- | --- | --- | --- | --- |
| CC(C)CC(=O)N[C@H](C(=O)N[C@H](C(=O)N[C@@H](CC(C)C)[C@@H](O)CC(=O)N[C@@H](C)C(=O)N[C@@H](CC(C)C)[C@@H](O)CC(=O)N[C@@H](CCCNC(=N)N)C(=O)O)C(C)C)C(C)C [pepstatin-arginine] (Isovaleryl-VV[Sta]A[Sta]R-OH) | 48.3±8.2 mmHg | – | – | – | – | – |
| COC(=O)[C@H](CCCNC(=N)N)NC(=O)C[C@H](O)[C@H](CC(C)C)NC(=O)[C@H](C)NC(=O)C[C@H](O)[C@H](CC(C)C)NC(=O)[C@@H](NC(=O)[C@@H](NC(=O)CC(C)C)C(C)C)C(C)C [methyl ester of pepstatin-arginine] (Isovaleryl-VV[Sta]A[Sta]R-OMe) | 48.3±8.2 mmHg | 315 nM | – | – | – | – |
| CNCC(=O)N[C@@H](CCCN=C(N)N)C(=O)N[C@H](C(=O)N[C@@H](Cc1ccc(O)cc1)C(=O)N[C@H](C(=O)N[C@@H](Cc1cnc[nH]1)C(=O)N1CCC[C@H]1C(=O)N[C@@H](C)C(=O)O)C(C)C)C(C)C [Saralasin, Sar 1, Ala-8 Angiotensin II] | – | – | 13 rats | 5 min | 10 min | 44.5±8.5 mmHg |
